# According to paper doi:10.1101/2025.02.07.637162, “Lactate dehydrogenase is the Achilles’ heel of Lyme disease bacterium Borreliella burgdorferi” (bioRxiv, 2025):
# Tests used:
# [1] = target: T1, BbLDH (BB_0087, lactate dehydrogenase) (Borreliella burgdorferi, UniProt O51114); experiment: X-ray crystal structure, […] Å; allosteric activation of enzyme activity; assay type: binding
# T1 construct: gene ldh; full-length, 316 residues
# [2] = target: T1, BbLDH (BB_0087, lactate dehydrogenase); experiment: X-ray crystal structure, […] Å; assay type: binding
# T1 sequence (O51114 whole entry): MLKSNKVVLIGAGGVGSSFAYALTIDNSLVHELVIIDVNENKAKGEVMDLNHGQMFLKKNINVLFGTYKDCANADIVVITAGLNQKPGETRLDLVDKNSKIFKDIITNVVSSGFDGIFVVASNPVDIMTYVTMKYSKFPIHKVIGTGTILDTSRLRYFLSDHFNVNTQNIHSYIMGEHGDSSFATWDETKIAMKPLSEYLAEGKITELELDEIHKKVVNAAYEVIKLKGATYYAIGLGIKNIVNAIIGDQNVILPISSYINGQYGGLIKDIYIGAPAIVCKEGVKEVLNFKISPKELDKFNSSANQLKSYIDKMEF
SMILES,"X-ray crystal structure, 2.1 Å; allosteric activation of enzyme activity [1]","X-ray crystal structure, 2.1 Å [2]"
"O=P(O)(O)OC[C@H]1OC(O)(COP(=O)(O)O)[C@@H](O)[C@@H]1O (some centres unmarked) [FBP, fructose 1,6-bisphosphate]","Salt bridge and hydrogen bonding residues that interact with FBP in BbLDH (chain A and C, pink and yellow)",
NC(=O)C1=CN([C@@H]2O[C@H](COP(=O)(O)OP(=O)(O)OC[C@H]3O[C@@H](n4cnc5c(N)ncnc54)[C@H](O)[C@@H]3O)[C@@H](O)[C@H]2O)C=CC1 [NADH],,Both structures were determined in the presence of NADH and the pyruvate analog oxamate (OXA)
